PubChem BioAssay (NCI)
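Cells were grown in 96-well plates and exposed to each compound for 48 hours at five concentrations; endpoints were interpolated linearly between bracketing concentrations, or set to the highest concentration if not reached. TGI marks complete inhibition of growth.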

Legend:
Test in all cases: NCI tumour cell line growth inhibition, 48 h
OVCAR-8 ovarian = system: OVCAR-8 ovarian
HCC-2998 colon = system: HCC-2998 colon
M14 melanoma = system: M14 melanoma
TK-10 renal = system: TK-10 renal
IGROV1 ovarian = system: IGROV1 ovarian
BT-549 breast = system: BT-549 breast
SK-MEL-5 melanoma = system: SK-MEL-5 melanoma
ACHN renal = system: ACHN renal
HT29 colon = system: HT29 colon
MCF7 breast = system: MCF7 breast
NCI-H23 lung = system: NCI-H23 lung
OVCAR-5 ovarian = system: OVCAR-5 ovarian
NCI/ADR-RES ovarian = system: NCI/ADR-RES ovarian
SNB-75 CNS = system: SNB-75 CNS
OVCAR-4 ovarian = system: OVCAR-4 ovarian
KM12 colon = system: KM12 colon
MALME-3M melanoma = system: MALME-3M melanoma
786-0 renal = system: 786-0 renal
MDA-MB-435 = system: MDA-MB-435
NCI-H460 lung = system: NCI-H460 lung
HL-60(TB) leukemia = system: HL-60(TB) leukemia
SF-268 CNS = system: SF-268 CNS
MDA-MB-231 breast = system: MDA-MB-231 breast
A498 renal = system: A498 renal
HCT-116 colon = system: HCT-116 colon
RXF 393 renal = system: RXF 393 renal
SK-MEL-28 melanoma = system: SK-MEL-28 melanoma
K-562 leukemia = system: K-562 leukemia
SK-MEL-2 melanoma = system: SK-MEL-2 melanoma
MOLT-4 leukemia = system: MOLT-4 leukemia
SNB-19 CNS = system: SNB-19 CNS
MDA-N = system: MDA-N
CAKI-1 renal = system: CAKI-1 renal
OVCAR-3 ovarian = system: OVCAR-3 ovarian
DU-145 prostate = system: DU-145 prostate
UACC-62 melanoma = system: UACC-62 melanoma
HCT-15 colon = system: HCT-15 colon
NCI-H226 lung = system: NCI-H226 lung
CCRF-CEM leukemia = system: CCRF-CEM leukemia
COLO 205 colon = system: COLO 205 colon
UO-31 renal = system: UO-31 renal
SF-539 CNS = system: SF-539 CNS
SF-295 CNS = system: SF-295 CNS
UACC-257 melanoma = system: UACC-257 melanoma
LOX IMVI melanoma = system: LOX IMVI melanoma
A549 NSCLC = system: A549 NSCLC
T-47D breast = system: T-47D breast
SW-620 colon = system: SW-620 colon
EKVX NSCLC = system: EKVX NSCLC
HS 578T breast = system: HS 578T breast
U251 CNS = system: U251 CNS
SN12C renal = system: SN12C renal
SK-OV-3 ovarian = system: SK-OV-3 ovarian
PC-3 prostate = system: PC-3 prostate
HOP-92 NSCLC = system: HOP-92 NSCLC
HOP-62 NSCLC = system: HOP-62 NSCLC
SR leukemia = system: SR leukemia
NCI-H522 lung = system: NCI-H522 lung
RPMI-8226 leukemia = system: RPMI-8226 leukemia

For `N#CC(c1ccccc1)N(CCOCCOCCN(C(=O)c1cccc2ccccc12)C(C#N)c1ccccc1)C(=O)c1cccc2ccccc12` (stereo unspecified), the TGI (OVCAR-8 ovarian) was > 100 µM, the TGI (HCC-2998 colon) was > 100 µM and the TGI (M14 melanoma) was > 100 µM. The TGI (TK-10 renal) was > 100 µM, the TGI (IGROV1 ovarian) was > 100 µM and the TGI (BT-549 breast) was > 100 µM. For the same compound, the TGI (SK-MEL-5 melanoma) was > 100 µM, the TGI (ACHN renal) was > 100 µM and the TGI (HT29 colon) was > 100 µM. For the same compound, the TGI (MCF7 breast) was > 100 µM, the TGI (NCI-H23 lung) was > 100 µM and the TGI (OVCAR-5 ovarian) was > 100 µM. For the same compound, the TGI (NCI/ADR-RES ovarian) was > 100 µM, the TGI (SNB-75 CNS) was > 100 µM and the TGI (OVCAR-4 ovarian) was > 100 µM. The TGI (KM12 colon) was > 100 µM, the TGI (MALME-3M melanoma) was > 100 µM and the TGI (786-0 renal) was > 100 µM. The TGI (MDA-MB-435) was > 100 µM, the TGI (NCI-H460 lung) was > 100 µM and the TGI (HL-60(TB) leukemia) was > 100 µM. For the same compound, the TGI (SF-268 CNS) was > 100 µM, the TGI (MDA-MB-231 breast) was > 100 µM and the TGI (A498 renal) was > 100 µM. The TGI (HCT-116 colon) was > 100 µM, the TGI (RXF 393 renal) was > 100 µM and the TGI (SK-MEL-28 melanoma) was > 100 µM. The TGI (K-562 leukemia) was > 100 µM, the TGI (SK-MEL-2 melanoma) was > 100 µM and the TGI (MOLT-4 leukemia) was > 100 µM. The TGI (SNB-19 CNS) was > 100 µM, the TGI (MDA-N) was > 100 µM and the TGI (CAKI-1 renal) was > 100 µM. The TGI (OVCAR-3 ovarian) was > 100 µM, the TGI (DU-145 prostate) was > 100 µM and the TGI (UACC-62 melanoma) was > 100 µM. The TGI (HCT-15 colon) was > 100 µM, the TGI (NCI-H226 lung) was > 100 µM and the TGI (CCRF-CEM leukemia) was > 100 µM. For the same compound, the TGI (COLO 205 colon) was > 100 µM, the TGI (UO-31 renal) was > 100 µM and the TGI (SF-539 CNS) was > 100 µM. For the same compound, the TGI (SF-295 CNS) was > 100 µM, the TGI (UACC-257 melanoma) was > 100 µM and the TGI (LOX IMVI melanoma) was > 100 µM. The TGI (A549 NSCLC) was > 100 µM, the TGI (T-47D breast) was > 100 µM and the TGI (SW-620 colon) was > 100 µM. For the same compound, the TGI (EKVX NSCLC) was > 100 µM, the TGI (HS 578T breast) was > 100 µM and the TGI (U251 CNS) was > 100 µM. For the same compound, the TGI (SN12C renal) was > 100 µM, the TGI (SK-OV-3 ovarian) was > 100 µM and the TGI (PC-3 prostate) was > 100 µM.
For `CC1C(O)Oc2cc3c(cc2C1c1ccccc1O)OCO3` (stereo unspecified), the TGI (OVCAR-8 ovarian) was > 100 µM, the TGI (HCC-2998 colon) was > 100 µM and the TGI (HOP-92 NSCLC) was 47.2 µM. For the same compound, the TGI (M14 melanoma) was > 100 µM, the TGI (TK-10 renal) was 89.6 µM and the TGI (IGROV1 ovarian) was > 100 µM. For the same compound, the TGI (BT-549 breast) was > 100 µM, the TGI (HOP-62 NSCLC) was > 100 µM and the TGI (SK-MEL-5 melanoma) was 98.5 µM. For the same compound, the TGI (ACHN renal) was > 100 µM, the TGI (HT29 colon) was 66.6 µM and the TGI (MCF7 breast) was > 100 µM. For the same compound, the TGI (NCI-H23 lung) was > 100 µM, the TGI (OVCAR-5 ovarian) was > 100 µM and the TGI (SNB-75 CNS) was 87.4 µM. For the same compound, the TGI (SR leukemia) was 25.2 µM, the TGI (KM12 colon) was > 100 µM and the TGI (MALME-3M melanoma) was 83.8 µM. For the same compound, the TGI (786-0 renal) was > 100 µM, the TGI (MDA-MB-435) was > 100 µM and the TGI (NCI-H460 lung) was 64.1 µM. The TGI (HL-60(TB) leukemia) was 36.7 µM, the TGI (SF-268 CNS) was > 100 µM and the TGI (MDA-MB-231 breast) was 65.4 µM. It also gave a TGI (A498 renal) of 82.7 µM, a TGI (HCT-116 colon) of 35.5 µM and a TGI (NCI-H522 lung) of 42.9 µM. The TGI (RXF 393 renal) was 48.4 µM, the TGI (SK-MEL-28 melanoma) was 84 µM and the TGI (K-562 leukemia) was 46.5 µM. The TGI (SK-MEL-2 melanoma) was 83.8 µM, the TGI (MOLT-4 leukemia) was 61.7 µM and the TGI (SNB-19 CNS) was > 100 µM. The TGI (MDA-N) was > 100 µM, the TGI (CAKI-1 renal) was > 100 µM and the TGI (OVCAR-3 ovarian) was 99 µM. For the same compound, the TGI (DU-145 prostate) was > 100 µM, the TGI (UACC-62 melanoma) was > 100 µM and the TGI (HCT-15 colon) was > 100 µM. For the same compound, the TGI (NCI-H226 lung) was 69.2 µM, the TGI (CCRF-CEM leukemia) was 51.2 µM and the TGI (COLO 205 colon) was 31 µM. For the same compound, the TGI (UO-31 renal) was > 100 µM, the TGI (SF-539 CNS) was 79.2 µM and the TGI (SF-295 CNS) was 65.5 µM. For the same compound, the TGI (UACC-257 melanoma) was > 100 µM, the TGI (LOX IMVI melanoma) was > 100 µM and the TGI (A549 NSCLC) was > 100 µM. For the same compound, the TGI (T-47D breast) was > 100 µM, the TGI (SW-620 colon) was > 100 µM and the TGI (EKVX NSCLC) was > 100 µM. For the same compound, the TGI (HS 578T breast) was 46.6 µM, the TGI (U251 CNS) was > 100 µM and the TGI (SN12C renal) was > 100 µM. For the same compound, the TGI (RPMI-8226 leukemia) was 48.1 µM, the TGI (SK-OV-3 ovarian) was > 100 µM and the TGI (PC-3 prostate) was 65.7 µM.
